The record followed here is paper PMC11110157, “Biosynthesis of the bacterial antibiotic 3,7-dihydroxytropolone through enzymatic salvaging of catabolic shunt products” (Chemical Science, 2024).

The target of experiment [1] is T1, TrlE (Streptomyces cyaneofuscatus, UniProt A0A2S1JZI9).
T1 construct: heterologously produced and purified; crystal structure model residues 1-400
T1 sequence (A0A2S1JZI9 1-400): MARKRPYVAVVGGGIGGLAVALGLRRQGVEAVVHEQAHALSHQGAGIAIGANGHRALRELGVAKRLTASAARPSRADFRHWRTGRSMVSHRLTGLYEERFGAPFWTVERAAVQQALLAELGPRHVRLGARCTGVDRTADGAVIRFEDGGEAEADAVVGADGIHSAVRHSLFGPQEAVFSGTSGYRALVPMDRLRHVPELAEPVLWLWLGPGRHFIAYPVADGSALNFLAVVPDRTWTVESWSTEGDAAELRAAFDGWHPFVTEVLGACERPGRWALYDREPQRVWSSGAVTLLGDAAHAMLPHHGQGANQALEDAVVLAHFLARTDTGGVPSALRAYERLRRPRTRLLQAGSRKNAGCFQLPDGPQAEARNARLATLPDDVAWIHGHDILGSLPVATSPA
Nature of the experiment: X-ray crystallography ([…] A). The format is binding. The settings on record: FAD non-covalently bound, IN conformation.

In experiment [2] the target is T2, TrlD (Streptomyces cyaneofuscatus, UniProt A0A2S1JZG9).
T2 construct: heterologously produced and purified; fraction co-purified with FAD
T2 sequence (A0A2S1JZG9 1-185): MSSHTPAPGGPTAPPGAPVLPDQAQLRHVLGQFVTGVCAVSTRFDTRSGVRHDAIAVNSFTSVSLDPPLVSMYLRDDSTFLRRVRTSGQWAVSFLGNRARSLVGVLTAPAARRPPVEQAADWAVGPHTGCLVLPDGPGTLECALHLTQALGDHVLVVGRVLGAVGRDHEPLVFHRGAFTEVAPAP
The experiment in a line: co-purification with bound flavin. The settings on record: FAD preferred over FMN as flavin substrate. The format is binding.

The target in experiment [3] is T2, TrlD. Nature of the experiment: flavin reductase assay, cofactor specificity. The format is biochemical. As to conditions: preferred over NADPH.
Experiment [4] deals with T3, TrlE (Streptomyces cyaneofuscatus, UniProt A0A2S1JZI9, H213Q).
T3 construct: heterologously produced and purified; crystal structure model residues 1-400
T3 sequence (A0A2S1JZI9 entry or part of it H213Q): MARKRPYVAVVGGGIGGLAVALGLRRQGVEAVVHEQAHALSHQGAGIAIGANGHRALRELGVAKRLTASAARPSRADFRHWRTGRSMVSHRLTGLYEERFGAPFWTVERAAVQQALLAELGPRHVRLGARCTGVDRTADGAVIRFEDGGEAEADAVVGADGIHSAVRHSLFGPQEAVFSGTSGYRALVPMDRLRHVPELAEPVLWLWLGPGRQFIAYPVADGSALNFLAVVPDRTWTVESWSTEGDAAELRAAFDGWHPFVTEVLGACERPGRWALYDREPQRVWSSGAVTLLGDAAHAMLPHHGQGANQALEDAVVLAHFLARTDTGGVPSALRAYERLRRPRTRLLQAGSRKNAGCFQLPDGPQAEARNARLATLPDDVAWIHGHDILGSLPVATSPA
Nature of the experiment: substrate consumption and product formation assay. In kind it is biochemical. As to conditions: strongly reduced activity, minor product formation.

For experiment [5], the target named is T4, TrlE (Streptomyces cyaneofuscatus, UniProt A0A2S1JZI9, H213E).
T4 construct: heterologously produced and purified; crystal structure model residues 1-400
T4 sequence (A0A2S1JZI9 entry or part of it H213E): as the sequence (A0A2S1JZI9 entry or part of it H213Q) above, with Q213E counted along it
Nature of the experiment: substrate consumption and product formation assay. In kind it is biochemical. As to conditions: strongly reduced activity, minor product formation.

In experiment [6] the target is T5, TrlE (Streptomyces cyaneofuscatus, UniProt A0A2S1JZI9, Y217F).
T5 construct: heterologously produced and purified; crystal structure model residues 1-400
T5 sequence (A0A2S1JZI9 entry or part of it Y217F): as the sequence (A0A2S1JZI9 entry or part of it H213Q) above, with Q213H, Y217F counted along it
Nature of the experiment: substrate consumption and product formation assay. In kind it is biochemical. The settings on record: strongly reduced activity.

Experiment [7] deals with T1, TrlE. Nature of the experiment: differential scanning fluorimetry. The format is binding. As to conditions: substrate analogue; thermal shift. A general note: In DSF a fluorescence change marks the thermal transition of the protein.

As for `Cc1cc2nc3c(=O)[nH]c(=O)nc-3n(C[C@H](O)[C@H](O)[C@H](O)COP(=O)(O)OP(=O)(O)OC[C@H]3O[C@@H](n4cnc5c(N)ncnc54)[C@H](O)[C@@H]3O)c2cc1C` [FAD], the “X-ray crystallography (2.5 A)” value at TrlE [1] is listed as “The non-covalently bound FAD observed in this structure is present in the “IN” conformation”. Moreover, the “co-purification with bound flavin” value on TrlD [2] is listed as “a fraction of TrlD was co-purified with bound FAD”. `NC(=O)C1=CN([C@@H]2O[C@H](COP(=O)(O)OP(=O)(O)OC[C@H]3O[C@@H](n4cnc5c(N)ncnc54)[C@H](O)[C@@H]3O)[C@@H](O)[C@H]2O)C=CC1` [NADH]: the “flavin reductase assay, cofactor specificity” value on TrlD [3] was “TrlD preferred FAD and NADH over FMN and NADPH, respectively”.

Consider `O=C(O)C1=C(O)CC=CC=C1` [compound 7, dihydrotropone-2-carboxylate], for which the “substrate consumption and product formation assay” value on TrlE [4] was “For both H213E and H213Q variants, minor product formation was still observed”; on TrlE [5], “For both H213E and H213Q variants, minor product formation was still observed”; at TrlE [6], “the other variants showed strongly reduced catalytic activity, with slowed substrate consumption and product formation”.

Turning to `O=C(O)c1ccccc1O` [salicylate], on TrlE [7], the differential scanning fluorimetry entry is listed as “binding of these compounds to TrlE was confirmed by differential scanning fluorimetry (DSF)”. Consider `O=C(O)c1cccccc1=O` [tropone-2-carboxylate], for which, on TrlE [7], the differential scanning fluorimetry result is “binding of these compounds to TrlE was confirmed by differential scanning fluorimetry (DSF)”.
